Data: US5854250A, “N-benzoylamino acid derivatives, pharmaceutical compositions containing them and process of preparing same” (Gyogyszerkutato Intezet KFT, priority 1997, dated 1998)
pIC50: −log10 of the molar value.

Experiments:
[1] = test system: heart-damaging effect of vasopressin; conditions: G. Razzaboni et al.; cited from earlier work
arachidonic acid = test: iron(II)-dependent peroxidation of arachidonic acid; type: biochemical; conditions: 37° C., in methanol; iron(II) initiated; thiobarbituric acid-reactive products, 535 nm; read-out: IC50 on arachidonic acid substrate
Description: A) The effect of compounds of general formula (I) on the iron(II)-dependentperoxidation of arachidonic acid
The peroxidation of arachidonic acid was measured by using the method of J. M. Braughler [J. Biol. Chem. 262, 10438 (1986)] at 37° C. in methanol. The compound to be tested was investigated at various concentrations. The peroxidation was initiated by adding 10^-4 mol of iron(II) (ferrous) ion (to result in a final volume of 0.5 ml).
(§1) The thiobarbituric acid-reactive products were determined by a modification of J. A. Buege [Meth. Enzymology 52, 302 (1978)] as follows. 0.55 ml of 2% thiobarbituric acid was added to the solution and the samples were boiled for 20 minutes. After cooling down, the samples were diluted with distilled water, then chloroform was added. After centrifuging the tubes at 400×g for 7 minutes, the quantity of the thiobarbituric acid-reactive products was determined in the supernatant by spectrophotometry at 535 nm. The effect of the compound to be tested was characterized by its IC50 value (i.e. the concentration resulting in an 50% inhibition). α-Tocopherol was used as reference compound.

brain homogenate = test: iron(II) ion-dependent peroxidation of brain homogenate; type: biochemical, OFA rats; conditions: rat brain homogenate in Krebs buffer; iron(II) initiated
Description: as §1
B) The effect of compounds of general formula (I) on the iron(II) ion-dependent peroxidation of brain homogenate
The measurement was carried out by using the method of J. M. Braughler [J. Biol. Chem. 262, 10438 (1987)].
In these experiments OFA rats with a body-weight of 150-200 g were decapitated and brain homogenates were prepared in Krebs buffer solution, then the Method A) was followed.

brain microsomes = test: NADPH-dependent peroxidation of brain microsomes; type: biochemical, OFA rats; conditions: rat brain microsomes, pH 6.8, 15 minutes, read-out: IC50 on brain microsome
Description: C) The effect of compounds of general formula (I) on the NADPH-dependent peroxidation of brain microsomes
This study was carried out by using the method of T. J. Player and A. A. Morton [J. Neurochem. 37, 422 (1981)].
OFA rats of 3 months age were decapitated and their whole brain was homogenized in ice-cold 0.25M saccharose solution. After centrifuging the homogenate at 15000×g for 10 minutes, the supernatant was decanted and the residue was further centrifuged at 78000×g for 60 minutes. The preparation having a concentration of 10-20 mg of protein/ml was divided to aliquots.
2) Measurement of the microsomal lipid peroxidatiorn
The measurement was carried out at […] in a reaction mixture with the following composition; 0.05M Tris maleate (pH 6.8) buffer, 1.0 mM KH2 SO4, 1.0 mM ADP, 0.2 mM FeCl3 and 0.4 mM NAOPH. NAOPH was not added to the reaction mixture used for determination of the baseline activity. The reaction was initiated […] by adding 0.5 mg of membrane protein and stopped after incubation for 15 minutes. Subsequently, the samples were centrifuged at 950×g for 20 minutes. The thiobarbituric acid-reactive products were determined in 1 ml of supernatant each by using the method of Z. Dunied [Biochem. Pharmacol. 32, 2283 (1983)].

small intestine section = test: ischaemic intestine injury in rats; type: in vivo, Male CFY rats; conditions: Rattus norvegicus; 25 mg/kg oral, 2 hours before the operation; read-out: Inhibition of ischaemia (%)
Description: A) Effect of compounds of the general formula (I) on the ischaemic intestine injury in rats
The method of D. A. Parks et al. [Surgery 92, 869 (1985)] was employed in these experiments.
Male CFY rats with an average body-weight of 250 g were starved for 24 hours before the surgical intervention but water was allowed ad libitum. The compound to be tested was orally administered in a 25 mg/kg dose by 2 hours before the operation.
The abdominal wall was opened along the median line under ether anaesthesia. The appropriate small intestine section was made ischaemic by ligating both small branches belonging to the pancreatico-duodenal artery. The shame-operated control animals were subjected only to the surgical intervention but their blood vessels were not ligated. The wound was closed and after 2 hours the abdominal cavity of the animals was again opened under ether anaesthesia. The thickened intestinal section was removed, its length and weight were determined and the significance was calculated by Duncan's test [D. B. Duncan: Biometrics 11, 1 (1955)] (with the weights corrected for a length of 20 mm) on the one hand, between the sham-operated and ischaemized vehicle-control animals; and on the other hand, between the ischaemized control animals and ischaemized animals treated with the compound to be tested. The edema-induced weight increase in the intestinal section was expressed as percentage.

[2] = test system: dopamine level of corpus striatum; test: neurotoxicity-inhibiting effect in mice (MPTP-induced dopamine depletion); type: in vivo, Male C-57 mice; conditions: for Dopamine level: then 50 mg/kg
Description: C) Study on the neurotoxicity-inhibiting effect in mice This study was carried out by using the method of R. E. Heikkila at al. [Science 224, 1451 (1984)] or by some modification of this method being very suitable to investigate compounds which are potentially active against Parkinson's disease. […] MPTP). […] One hour after the last administration, 40 mg/kg of MPTP and then an additional amount of 50 mg/kg of the compound to be tested were intraperitoneally administered. The animals were killed after 4 days, their brain was removed and the corpus striatum was separated. The dopamine level of corpus striatum was determined by high performance liquid chromatography (HPLC).

[3] = acute oral toxicity in rats; conditions: rat, in vivo
From the text: The toxicity of the compounds according to the invention was studied in rats.

[4] = test system: reperfusion-induced arrhythmia; test: reperfusion-induced arrhythmia in rats; type: in vivo, male SPRD rats; conditions: for Average duration of VT/VF: one hour before, S ± SE/min
Description: B) Investigations on the model of reperfusion-induced arrhythmia in rats
In these experiments, the reperfusion-induced arrhythmia was developed in male SPRD rats weighing 400 g in average by using the method Lamontagne et al. [Fundam. Clin. Pharmacol. 3, 671 (1989)].
The chest of artificially respirated animals was opened under pentobarbital anaesthesia and a thread was implanted under the left coronary. After an equilibration period of 15 minutes, in the case of an arterial blood pressure of at least 60 Hgmm, a myocardial ischaemia was induced by ligating the coronary for 5 minutes. This was followed by a reperfusion lasting for 10 minutes. The duration of arrhythmia, ventricular tachycardia (VT) and ventricular fibrillation (VF), respectively, developed within 3 minutes after reperfusion were registered in a lead-II ECG.
The average durations of VT and VF, respectively related to 1 minute were determined and the number of deaths induced by arrhythmia was also registered.
The compound to be tested was orally administered one hour before the experiment.
The statistical data were calculated by using Duncan's test (duration of VT and VF, respectively) or the chi^2 test (number of deaths) [S. Bolton in: "Pharmaceutical Statistics", pages 169-173 (1990), Marcel Dekkar] following the variance analysis in relation to the vehicle control.

lipid peroxidation = conditions: J. M. Braughler et al.; cited from earlier work
[5] = cited from earlier work
[6] = with MPTP treatment (+), 40 mg/kg, compound 100 mg/kg i.p. once daily for 3 days, a p < 0.01, b p < 0.05 vs MPTP control
[7] = without MPTP treatment (-), 100 mg/kg i.p. once daily for 3 days

COc1cc(C(=O)NCCCCCC(=O)O)ccc1O [6-(4-hydroxy-3-methoxybenzoyl)aminohexanoic acid]
activity against the heart-damaging effect of vasopressin [1]: inactive

O=C(O)CCCCCCCCCCCNC(=O)c1cc(O)ccc1O [Example 24]
pIC50 (arachidonic acid): 4.40 | pIC50 (brain homogenate): 5.32 | pIC50 (brain microsomes): 4.43 | inhibition in vivo at 25 mg/kg (small intestine section): 63% | Dopamine level, % of control ([2]; with MPTP treatment (+)): 24% | Dopamine level [2, 6]: 4,85 ± 1,7 μg/g tissue | Dopamine level, % of control ([2]; without MPTP treatment (-)): 102% | Dopamine level [2, 7]: 20,44 ± 0,6 μg/g tissue | LD50 [3]: > 1000 mg/kg

O=C(O)CCCCCNC(=O)c1cc(O)ccc1O [Example 25]
pIC50 (arachidonic acid): 4.82 | pIC50 (brain homogenate): 4.00 | pIC50 (brain microsomes): 4.00 | inhibition in vivo at 25 mg/kg (small intestine section): 61% | No. of deaths (lethal VT/VF) ([4]; 50 mg/kg p.o.): 4/8 | Average duration of VT/VF ([4]; 50 mg/kg p.o.): 37.3 ± 5.7 S/min | Average duration of VT/VF ([4]; 100 mg/kg p.o., **p < 0.01): 28.0 ± 5.1 S/min | No. of deaths (lethal VT/VF) ([4]; 100 mg/kg p.o., *p < 0.05): 1/10 | LD50 [3]: > 1000 mg/kg

CCCCCCCCNC(=O)CCCCCNC(=O)c1cc(O)ccc1O [Example 29]
pIC50 (arachidonic acid): 4.00 | pIC50 (brain homogenate): 5.05 | pIC50 (brain microsomes): 5.35 | inhibition in vivo at 25 mg/kg (small intestine section): 52% | LD50 [3]: > 1000 mg/kg

O=C(NCCCCCC(=O)N1CCCC1=O)c1cc(O)ccc1O [Example 30]
inhibition in vivo at 25 mg/kg (small intestine section): 70%

CCOC(=O)CCCCCCCCCCNC(=O)c1cc(O)ccc1O [Example 31, ethyl 11-[N-(2,5-dihydroxybenzoyl)amino]undecanoate]
pIC50 (arachidonic acid): 4.00 | pIC50 (brain homogenate): 4.80 | pIC50 (brain microsomes): 5.18

CCOC(=O)CCCCCCCCCCCNC(=O)c1cc(O)ccc1O [Example 32]
pIC50 (arachidonic acid): 4.00 | pIC50 (brain homogenate): 4.92 | pIC50 (brain microsomes): 5.10

O=C(NCCCCCC(=O)N1CCN(CCCc2ccccc2)CC1)c1cc(O)ccc1O [Example 34]
pIC50 (arachidonic acid): 4.00 | pIC50 (brain homogenate): 4.40 | pIC50 (brain microsomes): 5.07

O=C(NCCCCCC(=O)N1CCN(c2cc(N3CCCC3)nc(N3CCCC3)n2)CC1)c1cc(O)ccc1O [Example 35]
pIC50 (arachidonic acid): 4.57 | pIC50 (brain homogenate): 5.48 | pIC50 (brain microsomes): 5.28 | inhibition in vivo at 25 mg/kg (small intestine section): 63% | LD50 [3]: > 1000 mg/kg

O=C(O)CCCNC(=O)c1cc(O)ccc1O [Example 36, 4-[N-(2,5-dihydroxybenzoyl)amino]butyric acid]
pIC50 (arachidonic acid): 5.47 | pIC50 (brain homogenate): 4.00 | pIC50 (brain microsomes): 4.00 | inhibition in vivo at 25 mg/kg (small intestine section): 76% | No. of deaths (lethal VT/VF) ([4]; 50 mg/kg p.o.): 4/8 | Average duration of VT/VF ([4]; 50 mg/kg p.o.): 33.0 ± 9.9 S/min | Average duration of VT/VF ([4]; 100 mg/kg p.o., **p < 0.01): 20.6 ± 6.3 S/min | No. of deaths (lethal VT/VF) ([4]; 100 mg/kg p.o., *p < 0.05): 0/10 | Dopamine level, % of control ([2]; with MPTP treatment (+)): 33% | Dopamine level [2, 6]: 6,68 ± 1,0 μg/g tissue | Dopamine level, % of control ([2]; without MPTP treatment (-)): 103% | Dopamine level [2, 7]: 20,67 ± 0,5 μg/g tissue | LD50 [3]: > 1000 mg/kg

O=C(O)CCCCNC(=O)c1cc(O)ccc1O [Example 37]
pIC50 (arachidonic acid): 4.51 | pIC50 (brain homogenate): 4.00 | pIC50 (brain microsomes): 4.00 | inhibition in vivo at 25 mg/kg (small intestine section): 73% | LD50 [3]: > 1000 mg/kg

COC(=O)CCCNC(=O)c1cc(O)ccc1O [Example 40, methyl 4-[N-(2,5-dihydroxybenzoyl)amino]butanoate]
inhibition in vivo at 25 mg/kg (small intestine section): 72%

COC(=O)CCCCCNC(=O)c1cc(O)ccc1O [Example 41, Methyl 6-{[N-(2,5-dihydroxybenzoyl)amino]hexanoate}]
inhibition in vivo at 25 mg/kg (small intestine section): 75%

C[C@@H]1C[C@H]2[C@@H]3CCC4=CC(=O)C=C[C@]4(C)C3=CC[C@]2(C)[C@H]1C(=O)CN1CCN(c2cc(N3CCCC3)nc(N3CCCC3)n2)CC1 [Example U74006F]
inhibition of lipid peroxidation (lipid peroxidation): strongly inhibited | in vivo activity [5]: proven

Cc1c(C)c2c(c(C)c1O)CCC(C)(CCCC(C)CCCC(C)CCCC(C)C)O2 (stereo not drawn) [α-Tocopherol, reference compound]
pIC50 (arachidonic acid): 5.82 | pIC50 (brain homogenate): 5.15 | pIC50 (brain microsomes): < 4.00 | Average duration of VT/VF ([4]; 100 mg/kg p.o., **p < 0.01): 33.1 ± 7.1 S/min | No. of deaths (lethal VT/VF) ([4]; 100 mg/kg p.o., *p < 0.05): 4/8 | Average duration of VT/VF ([4]; 250 mg/kg p.o., **p < 0.01): 27.2 ± 7.1 S/min | No. of deaths (lethal VT/VF) ([4]; 250 mg/kg p.o., *p < 0.05): 1/8
